Data taken from ChEMBL document CHEMBL2429748, “DFT-based prediction of antifungal and insecticidal activities of perfluorophenyl antimony(III) and antimony(V) chlorides” (Med Chem Res, 2013).

Key:
Type in all cases: functional, organism-based
Aspergillus niger [1] = assay: Antifungal activity against Aspergillus niger assessed as growth inhibition at 100 ug/mL by agar diffusion method relative to control
Aspergillus flavus [2] = assay: Antifungal activity against Aspergillus flavus assessed as growth inhibition at 100 ug/mL by agar diffusion method relative to control
Aspergillus niger [3] = assay: Antifungal activity against Aspergillus niger assessed as growth inhibition at 50 ug/mL by agar diffusion method relative to control
Aspergillus flavus [4] = assay: Antifungal activity against Aspergillus flavus assessed as growth inhibition at 50 ug/mL by agar diffusion method relative to control
Aspergillus niger [5] = assay: Antifungal activity against Aspergillus niger assessed as growth inhibition at 20 ug/mL by agar diffusion method relative to control
Aspergillus flavus [6] = assay: Antifungal activity against Aspergillus flavus assessed as growth inhibition at 20 ug/mL by agar diffusion method relative to control
Aspergillus niger [7] = assay: Antifungal activity against Aspergillus niger assessed as growth inhibition at 10 ug/mL by agar diffusion method relative to control
Aspergillus flavus [8] = assay: Antifungal activity against Aspergillus flavus assessed as growth inhibition at 10 ug/mL by agar diffusion method relative to control

Substance | growth inhibition (GI) (Aspergillus niger [1]) | growth inhibition (GI) (Aspergillus flavus [2]) | growth inhibition (GI) (Aspergillus niger [3]) | growth inhibition (GI) (Aspergillus flavus [4]) | growth inhibition (GI) (Aspergillus niger [5]) | growth inhibition (GI) (Aspergillus flavus [6]) | growth inhibition (GI) (Aspergillus niger [7]) | growth inhibition (GI) (Aspergillus flavus [8])
chloro(ethyl)tris(pentafluorophenyl)-{5}-stibane | 95% | 96.7% | 80% | 83.3% | 75% | 73.3% | 60% | 66.6%
chlorobis(perfluorophenyl)stibine | 95% | 86.7% | 70% | 76.6% | 50% | 66.6% | 25% | 53.3%
dichloro(perfluorophenyl)stibine | 90% | 73.3% | 75% | 66.6% | 60% | 60% | 50% | 53.3%
dichlorotris(pentafluorophenyl)-{5}-stibane | 80% | 83.3% | 60% | 73.3% | 50% | 66.6% | 30% | 60%
tetrachloro(pentafluorophenyl)-{5}-stibane | 90% | 93.3% | 75% | 86.7% | 40% | 80% | 30% | 73.3%
trichlorobis(pentafluorophenyl)-{5}-stibane | 75% | 96.7% | 60% | 83.3% | 40% | 76.6% | 25% | 60%
tris(perfluorophenyl)stibine | 90% | 86.7% | 75% | 80% | 50% | 66.6% | 50% | 60%
